Patent publication US11046710B2, “Sulfonamide compounds” (DAIICHI SANKYO COMPANY, LIMITED, priority 2016, dated 2021)

Molecular target: human TNAP (Homo sapiens (Human), UniProt P05186)
Experiment: Inhibitory test of TNAP activity (pNPP substrate, p-nitrophenol production)
Format: biochemical
Conditions: human TNAP from transfected COS1 culture supernatant, 60 minutes at room temperature
Protocol: COS1 cells (DS Pharma Biomedical Co., Ltd.) were transfected with human TNAP (OriGene Technologies, Inc.) using Lipofectamine LTX & Plus reagent (Invitrogen Corp.). On the next day, the medium was replaced with a fresh medium, and the cells were cultured in an incubator for 3 days. After 3 days, the culture supernatant was collected and concentrated by centrifugation at 5000 G for 30 minutes using Amicon 14, 10^4 cut (Merck Millipore). The concentrated culture supernatant was dialyzed against 5 L of 50 mM Tris/200 mM NaCl/1 mM MgCl2/20 μM ZnCl2 twice and used as an enzyme source (enzyme solution). The substrate pNPP (ProteoChem Inc.) was adjusted to 3.1 mM with Milli-Q water, and a solution of each test compound dissolved in dimethyl sulfoxide (DMSO; Wako Pure Chemical Industries, Ltd.) by 6 serial dilutions at a 5-fold common ratio from 100 μM, or DMSO was added thereto at a final concentration of 1% by volume. The enzyme solution adjusted to 2 μg/mL with an assay buffer (200 mM Tris/2 mM MgCl2/0.04 mM ZnCl2/0.01% Tween 20) was added in the same amount of the substrate solution and incubated at room temperature for 60 minutes. Then, the absorbance (ABS: 405 nm) was measured using a microplate reader (model plus 384, Molecular Devices, LLC), and the concentration of produced p-nitrophenol was calculated.

Chain of human TNAP (P05186 18-524): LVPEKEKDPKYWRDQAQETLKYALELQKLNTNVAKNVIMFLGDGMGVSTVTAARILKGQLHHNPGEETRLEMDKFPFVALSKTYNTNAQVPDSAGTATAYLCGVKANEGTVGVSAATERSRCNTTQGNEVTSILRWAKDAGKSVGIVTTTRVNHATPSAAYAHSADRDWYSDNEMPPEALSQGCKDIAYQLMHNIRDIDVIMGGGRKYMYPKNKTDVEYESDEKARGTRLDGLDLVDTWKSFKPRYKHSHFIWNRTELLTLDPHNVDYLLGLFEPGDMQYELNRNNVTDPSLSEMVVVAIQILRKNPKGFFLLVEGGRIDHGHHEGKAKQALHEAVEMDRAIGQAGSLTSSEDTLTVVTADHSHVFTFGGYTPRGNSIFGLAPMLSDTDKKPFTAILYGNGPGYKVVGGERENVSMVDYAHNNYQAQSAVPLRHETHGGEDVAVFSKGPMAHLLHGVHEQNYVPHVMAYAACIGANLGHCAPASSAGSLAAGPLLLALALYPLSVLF

Compound	IC50
COc1ccc(Cl)cc1S(=O)(=O)Nc1cnc2c(c1)-n1nccc1CCO2 [Example 26, 5-chloro-N-(4,5-dihydropyrazolo[1,5-d]pyrido[2,3-b][1,4]oxazepin-9-yl)-2-methoxybenzenesulfonamide]	29.4 nM
COc1ccc(Cl)cc1S(=O)(=O)Nc1cnc2c(c1)C(=O)N1CCC[C@@H]1CO2 [Example 28, 5-chloro-2-methoxy-N-[(9aR)-5-oxo-8,9,9a,10-tetrahydro-5H,7H-pyrido[3,2-f]pyrrolo[2,1-c][1,4]oxazepin-3-yl]benzenesulfonamide]	1.2 nM
COc1ccc(Cl)cc1S(=O)(=O)Nc1cnc2c(c1)C(=O)N1CCC[C@H]1CO2 [Example 27, 5-chloro-2-methoxy-N-[(9aS)-5-oxo-8,9,9a,10-tetrahydro-5H,7H-pyrido[3,2-f]pyrrolo[2,1-c][1,4]oxazepin-3-yl]benzenesulfonamide]	13.2 nM
COc1ccc(Cl)cc1S(=O)(=O)Nc1cnc2c(c1)C(=O)N1CC[C@@H](O)[C@@H]1CO2 [Example 40, 5-chloro-N-[(9R,9aS)-9-hydroxy-5-oxo-8,9,9a,10-tetrahydro-5H,7H-pyrido[3,2-f]pyrrolo[2,1-c][1,4]oxazepin-3-yl]-2-methoxybenzenesulfonamide]	5.8 nM
CCOc1ccc(F)cc1S(=O)(=O)Nc1cnc2c(c1)-c1ccnn1[C@@H](C)CO2 [Example 18, 2-ethoxy-5-fluoro-N-[(5S)-5-methyl-5,6-dihydropyrazolo[1,5-d]pyrido[3,2-f][1,4]oxazepin-10-yl]benzenesulfonamide]	2.8 nM
COC(=O)N[C@@H]1C[C@@H]2COc3ncc(NS(=O)(=O)c4cc(Cl)ccc4OC)cc3C(=O)N2C1 [Example 50, methyl [(8R,9aR)-3-{[(5-chloro-2-methoxyphenyl)sulfonyl]amino}-5-oxo-8,9,9a,10-tetrahydro-5H, 7H-pyrido[3,2-f]pyrrolo[2,1-c][1,4]oxazepin-8-yl]carbamate]	0.5 nM
COc1ccc(Cl)cc1S(=O)(=O)Nc1cnc2c(c1)C(=O)N1C[C@H](O)C[C@H]1CO2 [Example 29, 5-chloro-N-[(8R,9aS)-8-hydroxy-5-oxo-8,9,9a,10-tetrahydro-5H,7H-pyrido[3,2-f]pyrrolo[2,1-c][1,4]oxazepin-3-yl]-2-methoxybenzenesulfonamide]	7.1 nM
CCOc1ncc(F)cc1S(=O)(=O)Nc1cnc2c(c1)-c1ccnn1CCO2 [Example 14, N-(5,6-dihydropyrazolo[1,5-d]pyrido[3,2-f][1,4]oxazepin-10-yl)-2-ethoxy-5-fluoropyridine-3-sulfonamide]	3.6 nM
COc1ccc(Cl)cc1S(=O)(=O)Nc1cnc2c(c1)-c1nnc(C(C)C)n1CCO2 [Example 5, 5-chloro-2-methoxy-N-[3-(propan-2-yl)-5,6-dihydropyrido[3,2-f][1,2,4]triazolo[4,3-d][1,4]oxazepin-10-yl]benzenesulfonamide]	2.8 nM
COc1ccc(Cl)cc1S(=O)(=O)Nc1cnc2c(c1)C(=O)N1C[C@@H](O)C[C@@H]1CO2 [Example 30, 5-chloro-N-[(8S,9aR)-8-hydroxy-5-oxo-8,9,9a,10-tetrahydro-5H,7H-pyrido[3,2-f]pyrrolo[2,1-c][1,4]oxazepin-3-yl]-2-methoxybenzenesulfonamide]	0.9 nM
O=C1c2cc(NS(=O)(=O)c3cc(Cl)ccc3OC(F)(F)F)cnc2OC[C@H]2C[C@H](O)CN12 [Example 32, 5-chloro-N-[(8S,9aR)-8-hydroxy-5-oxo-8,9,9a,10-tetrahydro-5H,7H-pyrido[3,2-f]pyrrolo[2,1-c][1,4]oxazepin-3-yl]-2-(trifluoromethoxy)benzenesulfonamide]	0.9 nM
CCc1nnc2n1CCOc1ncc(NS(=O)(=O)c3cc(Cl)ccc3OC)cc1-2 [Example 3, 5-chloro-N-(3-ethyl-5,6-dihydropyrido[3,2-f][1,2,4]triazolo[4,3-d][1,4]oxazepin-10-yl)-2-methoxybenzenesulfonamide]	2.4 nM
O=C1c2cc(NS(=O)(=O)c3cc(Cl)ccc3OC(F)(F)F)cnc2OC[C@H]2C[C@@H](O)CN12 [Example 37, 5-chloro-N-[(8R,9aR)-8-hydroxy-5-oxo-8,9,9a,10-tetrahydro-5H,7H-pyrido[3,2-f]pyrrolo[2,1-c][1,4]oxazepin-3-yl]-2-(trifluoromethoxy)benzenesulfonamide]	1.4 nM
O=C1c2cc(NS(=O)(=O)c3cc(F)ccc3OC(F)(F)F)cnc2OC[C@H]2C[C@@H](O)CN12 [Example 39, 5-fluoro-N-[(8R,9aR)-8-hydroxy-5-oxo-8,9,9a,10-tetrahydro-5H,7H-pyrido[3,2-f]pyrrolo[2,1-c][1,4]oxazepin-3-yl]-2-(trifluoromethoxy)benzenesulfonamide]	2.4 nM
COc1ccc(F)cc1S(=O)(=O)Nc1cnc2c(c1)C(=O)N1C[C@H](O)C[C@@H]1CO2 [Example 36, 5-fluoro-N-[(8R,9aR)-8-hydroxy-5-oxo-8,9,9a,10-tetrahydro-5H,7H-pyrido[3,2-f]pyrrolo[2,1-c][1,4]oxazepin-3-yl]-2-methoxybenzenesulfonamide]	1.5 nM
COc1ncc(Cl)cc1S(=O)(=O)Nc1cnc2c(c1)-c1ccnn1[C@H](C)CO2 [Example 23, 5-chloro-2-methoxy-N-[(5R)-5-methyl-5,6-dihydropyrazolo[1,5-d]pyrido[3,2-f][1,4]oxazepin-10-yl]pyridine-3-sulfonamide]	5.7 nM
COc1ccc(Cl)cc1S(=O)(=O)Nc1cnc2c(c1)C(=O)N1C[C@H](O)C[C@@H]1CO2 [Example 35, 5-chloro-N-[(8R,9aR)-8-hydroxy-5-oxo-8,9,9a,10-tetrahydro-5H,7H-pyrido[3,2-f]pyrrolo[2,1-c][1,4]oxazepin-3-yl]-2-methoxybenzenesulfonamide]	0.9 nM
CCOc1ccc(F)cc1S(=O)(=O)Nc1cnc2c(c1)-c1ccnn1CCO2 [Example 9, N-(5,6-dihydropyrazolo[1,5-d]pyrido[3,2-f][1,4]oxazepin-10-yl)-2-ethoxy-5-fluorobenzenesulfonamide]	3.4 nM
COc1ccc(Cl)cc1S(=O)(=O)Nc1cnc2c(c1)-c1nnc(C)n1CCO2 [Example 1, 5-chloro-2-methoxy-N-(3-methyl-5,6-dihydropyrido[3,2-f][1,2,4]triazolo[4,3-d][1,4]oxazepin-10-yl)benzenesulfonamide]	2.6 nM
